Test results published in PubChem BioAssay AID330 (DTP/NCI, 2004).
Values joined by “and” are separate entries in the source; they are usually repeats but may differ in a detail not shown here. Identical values can stand only once. Inconclusive results and toxic doses are left out.

Test system: P388 leukemia ip, CD2F1 mice, survival T/C
Assay: NCI In Vivo Anticancer Drug Screen. Data for tumor model P388 Leukemia (intraperitoneal) in CD2F1 (CDF1) mice
Settings: endpoint: median survival time, higher = longer survival
Procedure, shortened: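 Mice carrying the transplanted tumor received test compound or vehicle. Survival was recorded in each group, and the value is the treated-group measurement divided by that of the vehicle-treated control group.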

[1] = dose: 100.0 mg/kg/injection, schedule: Q01DX001 (ip), vehicle: saline with Tween-80
[2] = dose: 200.0 mg/kg/injection, schedule: Q01DX001 (ip), vehicle: saline with Tween-80
[3] = dose: 60.0 mg/kg/injection, schedule: Q01DX005 (ip), vehicle: saline
[4] = dose: 120.0 mg/kg/injection, schedule: Q01DX005 (ip), vehicle: saline
[5] = dose: 240.0 mg/kg/injection, schedule: Q01DX005 (ip), vehicle: saline
[6] = dose: 100.0 mg/kg/injection, schedule: Q04DX003 (ip), vehicle: saline with Tween-80
[7] = dose: 200.0 mg/kg/injection, schedule: Q04DX003 (ip), vehicle: saline with Tween-80
[8] = dose: 400.0 mg/kg/injection, schedule: Q04DX003 (ip), vehicle: saline with Tween-80
[9] = dose: 100.0 mg/kg/injection, schedule: Q04DX002 (ip), vehicle: saline with Tween-80
[10] = dose: 200.0 mg/kg/injection, schedule: Q04DX002 (ip), vehicle: saline with Tween-80
[11] = dose: 400.0 mg/kg/injection, schedule: Q04DX002 (ip), vehicle: saline with Tween-80
[12] = dose: 25.0 mg/kg/injection, schedule: Q01DX005 (ip), vehicle: Klucel (hydroxypropylcellulose) (HPC)
[13] = dose: 50.0 mg/kg/injection, schedule: Q01DX005 (ip), vehicle: Klucel (hydroxypropylcellulose) (HPC)
[14] = dose: 50.0 mg/kg/injection, schedule: Q01DX009 (ip), vehicle: Klucel (hydroxypropylcellulose) (HPC)
[15] = dose: 100.0 mg/kg/injection, schedule: Q01DX009 (ip), vehicle: Klucel (hydroxypropylcellulose) (HPC)
[16] = dose: 200.0 mg/kg/injection, schedule: Q01DX009 (ip), vehicle: Klucel (hydroxypropylcellulose) (HPC)
[17] = dose: 50.0 mg/kg/injection, schedule: Q04DX003 (ip), vehicle: saline with Tween-80
[18] = dose: 50.0 mg/kg/injection, schedule: Q01DX005 (ip), vehicle: saline
[19] = dose: 100.0 mg/kg/injection, schedule: Q01DX005 (ip), vehicle: saline
[20] = dose: 200.0 mg/kg/injection, schedule: Q01DX005 (ip), vehicle: saline
[21] = dose: 60.0 mg/kg/injection, schedule: Q01DX005 (ip), vehicle: saline with Tween-80
[22] = dose: 120.0 mg/kg/injection, schedule: Q01DX005 (ip), vehicle: saline with Tween-80
[23] = dose: 240.0 mg/kg/injection, schedule: Q01DX005 (ip), vehicle: saline with Tween-80
[24] = dose: 100.0 mg/kg/injection, schedule: Q01DX005 (ip), vehicle: Klucel (hydroxypropylcellulose) (HPC)
[25] = dose: 200.0 mg/kg/injection, schedule: Q01DX005 (ip), vehicle: Klucel (hydroxypropylcellulose) (HPC)
[26] = dose: 25.0 mg/kg/injection, schedule: Q01DX009 (ip), vehicle: saline
[27] = dose: 50.0 mg/kg/injection, schedule: Q01DX009 (ip), vehicle: saline
[28] = dose: 100.0 mg/kg/injection, schedule: Q01DX009 (ip), vehicle: saline
[29] = dose: 50.0 mg/kg/injection, schedule: Q01DX009 (ip), vehicle: saline with Tween-80
[30] = dose: 100.0 mg/kg/injection, schedule: Q01DX009 (ip), vehicle: saline with Tween-80

## c1ccc2c(c1)ccc1c3ccccc3ncc21
dose: 12.5 mg/kg/injection, schedule: Q04DX003 (ip), vehicle: distilled water + Tween-80
  T/C: 107 % of control
dose: 25.0 mg/kg/injection, schedule: Q04DX003 (ip), vehicle: distilled water + Tween-80
  T/C: 96 % of control
dose: 50.0 mg/kg/injection, schedule: Q04DX003 (ip), vehicle: distilled water + Tween-80
  T/C: 98 % of control
dose: 100.0 mg/kg/injection, schedule: Q04DX003 (ip), vehicle: distilled water + Tween-80
  T/C: 102 % of control
dose: 200.0 mg/kg/injection, schedule: Q04DX003 (ip), vehicle: distilled water + Tween-80
  T/C: 102 % of control
dose: 400.0 mg/kg/injection, schedule: Q04DX003 (ip), vehicle: distilled water + Tween-80
  T/C: 98 % of control

## O=C1Cc2c(Cl)cccc2C(=S)N1
dose: 50.0 mg/kg/injection, schedule: Q01DX001 (ip), vehicle: saline with Tween-80
  T/C: 100 % of control
[1]
  T/C: 100 % of control
[2]
  T/C: 100 % of control

## CCOC(=O)C(C)(CCC(C)=O)C(=O)OCC
[3]
  T/C: 100 % of control
[4]
  T/C: 99 % of control
[5]
  T/C: 108 % of control

## CCCCN(CCCC)CCC(=O)OCC
[6]
  T/C: 104 % of control
[7]
  T/C: 100 % of control
[8]
  T/C: 109 % of control

## COC(=O)/C(=C\SC(C)=O)NC(C)=O
[9]
  T/C: 107 % of control
[10]
  T/C: 105 % of control
[11]
  T/C: 117 % of control

## O=NN(CCCl)C(=O)NCCSSCCNC(=O)N(CCCl)N=O (tested in a mixture with another compound)
dose: 12.5 mg/kg/injection, schedule: Q01DX005 (ip), vehicle: Klucel (hydroxypropylcellulose) (HPC)
  T/C: 179 % of control and 211 % of control
[12]
  T/C: 224 % of control
[13]
  T/C: 120 % of control and 201 % of control

## Cc1nnc(NC(=O)c2ccc(Cl)c(Cl)c2)s1
[14]
  T/C: 100 % of control
[15]
  T/C: 94 % of control
[16]
  T/C: 89 % of control

## Brc1ccc(Nc2c3ccccc3nc3ccccc23)cc1
[17]
  T/C: 95 % of control
[6]
  T/C: 100 % of control

## CCOC(=O)C1CCCCC12OCCO2 (centres undefined)
[18]
  T/C: 95 % of control
[19]
  T/C: 96 % of control
[20]
  T/C: 95 % of control

## O=C(CCC(=O)Nc1ccccc1[N+](=O)[O-])CC(=O)c1ccc(Br)cc1
[21]
  T/C: 105 % of control
[22]
  T/C: 106 % of control
[23]
  T/C: 106 % of control

## CN(C)c1ccc(C(O)(Cc2cnc3ccccc3c2)c2ccc(N(C)C)cc2)cc1
[6]
  T/C: 95 % of control
[7]
  T/C: 103 % of control
[8]
  T/C: 99 % of control

## CC1=C/C(=C(\c2ccccc2)c2cc(C)c(O)c(CNCC(=O)O)c2)C=C(CNCC(=O)O)C1=O
[3]
  T/C: 95 % of control
[4]
  T/C: 103 % of control
[5]
  T/C: 108 % of control

## CC1C(=O)OC(C(Cl)(Cl)Cl)N1C (centres undefined)
[21]
  T/C: 97 % of control
[22]
  T/C: 97 % of control
[23]
  T/C: 94 % of control

## O=C1Nc2ccc(Br)cc2/C1=N/n1c(-c2ccccc2)nc2ccccc2c1=O
[13]
  T/C: 86 % of control
[24]
  T/C: 87 % of control
[25]
  T/C: 100 % of control

## O=C1OC2CC13Cc1ccccc1C3(C(=O)O)CC2I (centres undefined)
[21]
  T/C: 104 % of control
[22]
  T/C: 106 % of control
[23]
  T/C: 100 % of control

## CCCCCCCC[N+](C)(C)CC#CC[N+](C)(C)CCCCCCCC
dose: 6.25 mg/kg/injection, schedule: Q04DX003 (ip), vehicle: saline
  T/C: 96 % of control
dose: 12.5 mg/kg/injection, schedule: Q04DX003 (ip), vehicle: saline
  T/C: 103 % of control

## O=c1cc(-c2ccccc2)nc(Sc2ccc([N+](=O)[O-])cc2[N+](=O)[O-])[nH]1
[14]
  T/C: 98 % of control
[15]
  T/C: 98 % of control
[16]
  T/C: 93 % of control

## C#CC[N+]12CN3CN(CN(C3)C1)C2
dose: 12.5 mg/kg/injection, schedule: Q01DX009 (ip), vehicle: saline
  T/C: 98 % of control
[26]
  T/C: 99 % of control
[27]
  T/C: 99 % of control
[28]
  T/C: 116 % of control

## Cc1ccc(C(=O)CCl)c(C)c1
dose: 12.5 mg/kg/injection, schedule: Q04DX003 (ip), vehicle: saline with Tween-80
  T/C: 110 % of control
dose: 25.0 mg/kg/injection, schedule: Q04DX003 (ip), vehicle: saline with Tween-80
  T/C: 105 % of control
[17]
  T/C: 110 % of control

## [Cl][Pt+2][Cl].[NH-]c1ccc2[nH]c(=S)sc2c1.[NH-]c1ccc2[nH]c(=S)sc2c1
dose: 100.0 mg/kg/injection, schedule: Q01DX001 (sc), vehicle: olive oil, sesame oil, peanut oil
  T/C: 104 % of control
dose: 200.0 mg/kg/injection, schedule: Q01DX001 (sc), vehicle: olive oil, sesame oil, peanut oil
  T/C: 114 % of control
dose: 400.0 mg/kg/injection, schedule: Q01DX001 (sc), vehicle: olive oil, sesame oil, peanut oil
  T/C: 104 % of control

## O=C(/C=C/c1ccccc1)Cc1nc2nnc(NC(=O)Nc3ccc(Cl)cc3)n2[nH]c1=O
[21]
  T/C: 99 % of control
[22]
  T/C: 94 % of control
[23]
  T/C: 102 % of control

## COC(=O)C12c3ccccc3C3C(c4ccccc41)C32 (centres undefined)
dose: 100.0 mg/kg/injection, schedule: Q04DX003 (ip), vehicle: saline
  T/C: 102 % of control
dose: 200.0 mg/kg/injection, schedule: Q04DX003 (ip), vehicle: saline
  T/C: 96 % of control

## CN1C=C/C(=C/[N+](=O)[O-])N(C)C1=O
[12]
  T/C: 99 % of control
[13]
  T/C: 105 % of control
[24]
  T/C: 100 % of control
[25]
  T/C: 112 % of control

## Cc1ccc(S(=O)(=O)Nc2nnc(-c3coc4ccc(C)cc4c3=O)s2)cc1
dose: 50.0 mg/kg/injection, schedule: Q01DX005 (ip), vehicle: saline with Tween-80
  T/C: 89 % of control
dose: 100.0 mg/kg/injection, schedule: Q01DX005 (ip), vehicle: saline with Tween-80
  T/C: 88 % of control

## OCC(Cl)Cc1cnc[nH]1 (centres undefined)
[29]
  T/C: 102 % of control
[30]
  T/C: 99 % of control
dose: 200.0 mg/kg/injection, schedule: Q01DX009 (ip), vehicle: saline with Tween-80
  T/C: 93 % of control

## O=C(Nc1ccc(N=C(c2ccccc2)N2CCOCC2)cc1)c1ccc(C(=O)Nc2ccc(N=C(c3ccccc3)N3CCOCC3)cc2)cc1
[12]
  T/C: 101 % of control
[13]
  T/C: 101 % of control
[24]
  T/C: 93 % of control
[25]
  T/C: 96 % of control

## NC(=S)c1cccc(C=Nc2ccccc2)n1
dose: 12.5 mg/kg/injection, schedule: Q04DX003 (ip), vehicle: Klucel (hydroxypropylcellulose) (HPC)
  T/C: 106 % of control
dose: 25.0 mg/kg/injection, schedule: Q04DX003 (ip), vehicle: Klucel (hydroxypropylcellulose) (HPC)
  T/C: 105 % of control
dose: 50.0 mg/kg/injection, schedule: Q04DX003 (ip), vehicle: Klucel (hydroxypropylcellulose) (HPC)
  T/C: 97 % of control
dose: 100.0 mg/kg/injection, schedule: Q04DX003 (ip), vehicle: Klucel (hydroxypropylcellulose) (HPC)
  T/C: 91 % of control

## CN/N=C(/C)C(=O)O
[18]
  T/C: 106 % of control
[19]
  T/C: 99 % of control
[20]
  T/C: 99 % of control

## Cc1ccc2c(c1)=N/C(=N/c1[nH]c(O)c3ccccc13)N=2
[29]
  T/C: 100 % of control and 96 % of control
[30]
  T/C: 99 % of control

## O=[N+]([O-])c1cnc2n(O)cccc1-2
[1]
  T/C: 90 % of control
[2]
  T/C: 87 % of control

## CC(N)C(=O)NC(C(=O)O)C(C)O (centres undefined)
[26]
  T/C: 100 % of control
[27]
  T/C: 102 % of control
[28]
  T/C: 100 % of control
dose: 200.0 mg/kg/injection, schedule: Q01DX009 (ip), vehicle: saline
  T/C: 99 % of control
dose: 400.0 mg/kg/injection, schedule: Q01DX009 (ip), vehicle: saline
  T/C: 102 % of control

## CCOC(=O)CC(C)=Nc1c(SC)sc(C#N)c1N
[9]
  T/C: 97 % of control
[10]
  T/C: 95 % of control
[11]
  T/C: 91 % of control
